This passage reports IC50 results from US20240279207A1, “SUBSTITUTED ACYL SULFONAMIDES FOR TREATING CANCER” (The Broad Institute, Inc., priority 2020, published 2024).

Like-named read-outs stand apart in the source and are kept apart here.

Experiment [1] deals with T1, Recombinant human His-tagged Kat6a protein (amino acids 194-810) (Homo sapiens, UniProt Q92794).
T1 construct: Kat6a protein (amino acids 194-810); His
Briefly: Kat6a activity assay (TR-FRET, acetylation of Histone-H4-derived peptide). Format: biochemical. The settings on record: 60 mins at 22° C., 220 nM H4 peptide, 600 nM Acetyl Coenzyme A, read-out: KAT6A - DPF/HAT domain IC50 [mol/l] (arithmetic mean). A general note: In TR-FRET formats the signal depends on donor and acceptor labels being close together.

The subject of experiment [2] is ESR1 transcription in MVLN cells. In words: MVLN reporter assay: repression of ESR1 transcription (luciferase signal). The conditions noted are these: Homo sapiens, luciferase signal after 24 h, read-out: MVLN reporter assay, IC50 [M] (arithmetic mean). Format: cell-based. In short, it runs like this: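 MVLN cells, expressing ER and stably carrying a vitellogenin A2 ERE-luciferase reporter, treated with compound in duplicate; luciferase read after 24 h with Steadylite plus. Cell density checked in parallel by Alamar Blue fluorescence (530/590 nm, 2 h) before the luciferase read.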

T1 sequence (Q92794 194-810): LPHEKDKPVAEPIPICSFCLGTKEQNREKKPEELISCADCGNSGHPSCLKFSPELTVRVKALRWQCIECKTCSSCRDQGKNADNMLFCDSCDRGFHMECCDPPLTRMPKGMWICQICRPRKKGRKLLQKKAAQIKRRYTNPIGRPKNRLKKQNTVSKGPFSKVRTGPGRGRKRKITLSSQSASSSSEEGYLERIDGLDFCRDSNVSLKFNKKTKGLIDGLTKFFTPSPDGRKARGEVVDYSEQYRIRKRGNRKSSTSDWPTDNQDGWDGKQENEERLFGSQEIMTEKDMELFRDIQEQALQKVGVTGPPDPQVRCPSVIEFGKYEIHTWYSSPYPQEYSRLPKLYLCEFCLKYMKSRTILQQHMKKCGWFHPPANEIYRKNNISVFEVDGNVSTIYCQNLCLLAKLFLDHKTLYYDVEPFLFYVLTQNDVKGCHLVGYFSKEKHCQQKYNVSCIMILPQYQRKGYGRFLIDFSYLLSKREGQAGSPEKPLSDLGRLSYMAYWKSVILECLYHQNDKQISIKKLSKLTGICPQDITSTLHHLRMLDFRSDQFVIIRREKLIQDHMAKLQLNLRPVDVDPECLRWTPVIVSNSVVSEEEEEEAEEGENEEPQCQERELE

For `CCN(CC)C(=O)Oc1ccccc1S(=O)(=O)NC(=O)c1cc2c(F)cc(N3CCC3)cc2o1` [Example 76, 2-{[6-(Azetidin-1-yl)-4-fluoro-1-benzofuran-2-carbonyl]sulfamoyl}phenyl diethylcarbamate], the results for the IC50 in experiment [1] and in experiment [2] were 0.111 µM and 2.82e-06 M, respectively.
On to `CCc1cccc(OC(C)C)c1S(=O)(=O)NC(=O)c1cc2c(F)cc(N3CCC3)cc2o1` [Example 84, 6-(Azetidin-1-yl)-N-{2-ethyl-6-[(propan-2-yl)oxy]benzene-1-sulfonyl}-4-fluoro-1-benzofuran-2-carboxamide], for which the IC50 in experiment [1] was found to be 0.0427 µM; in experiment [2] (MVLN, 24 h) it was 5.73e-07 M.
For `CCOc1ccccc1S(=O)(=O)NC(=O)c1cc2ccc(N3CC(OCC)C3)cc2o1` [Example 121, 6-(3-Ethoxyazetidin-1-yl)-N-(2-ethoxybenzene-1-sulfonyl)-1-benzofuran-2-carboxamide], in that order: 13.4 µM and greater than 2e-05 M.
For `COc1ccc(-c2cccc(F)c2)cc1S(=O)(=O)NC(=O)c1cc2c(F)cc(N3CCC3)cc2o1` [Example 198, 6-(Azetidin-1-yl)-4-fluoro-N-(3′-fluoro-4-methoxy[1,1′-biphenyl]-3-sulfonyl)-1-benzofuran-2-carboxamide] the same measures were 0.0116 µM and 2.95e-07 M.
Take `CCOC(=O)c1cn2cccc(S(=O)(=O)NC(=O)c3cc4c(F)cc(N5CCC5)cc4o3)c2n1` [Example 90, Ethyl 8-{[6-(azetidin-1-yl)-4-fluoro-1-benzofuran-2-carbonyl]sulfamoyl}imidazo[1,2-a]pyridine-2-carboxylate]: the IC50 in experiment [1] is 0.3 µM; in experiment [2] (MVLN, 24 h), greater than 2e-05 M.
For `CCOc1cccc(C)c1S(=O)(=O)NC(=O)c1cc2c(F)cc(N3CCC3)cc2o1` [Example 25, 6-(Azetidin-1-yl)-N-(2-ethoxy-6-methylbenzene-1-sulfonyl)-4-fluoro-1-benzofuran-2-carboxamide] the same measures were 0.148 µM and 3.26e-07 M.
For `O=C(NS(=O)(=O)c1ccccc1C1=NOCCO1)c1cc2c(F)cc(N3CCC3)cc2o1` [Example 96, 6-(Azetidin-1-yl)-N-[2-(5,6-dihydro-1,4,2-dioxazin-3-yl)benzene-1-sulfonyl]-4-fluoro-1-benzofuran-2-carboxamide] the same measures were 6.25 µM and greater than 2e-05 M.
Take `CCS(=O)(=O)c1nc2ccccn2c1S(=O)(=O)NC(=O)c1cc2c(F)cc(N3CCC3)cc2o1` [Example 167, 6-(Azetidin-1-yl)-N-[2-(ethanesulfonyl)imidazo[1,2-a]pyridine-3-sulfonyl]-4-fluoro-1-benzofuran-2-carboxamide]: the IC50 was 0.517 µM in experiment [1] and greater than 2e-05 M in experiment [2] (MVLN, 24 h).
`CCOc1cccc(C(C)C)c1S(=O)(=O)NC(=O)c1cc2c(F)cc(N3CCC3)cc2o1` [Example 23, 6-(Azetidin-1-yl)-N-[2-ethoxy-6-(propan-2-yl)benzene-1-sulfonyl]-4-fluoro-1-benzofuran-2-carboxamide]: the IC50 in experiment [1] was 0.0286 µM; in experiment [2] (MVLN, 24 h) it was 2.72e-07 M.
Consider `CCc1ccc(C)c(S(=O)(=O)NC(=O)c2cc3c(F)cc(N4CCC4)cc3o2)c1` [Example 34, 6-(Azetidin-1-yl)-N-(5-ethyl-2-methylbenzene-1-sulfonyl)-4-fluoro-1-benzofuran-2-carboxamide], for which the IC50 in experiment [1] amounted to 0.0596 µM; in experiment [2] (MVLN, 24 h), 5.79e-07 M.
For `NS(=O)(=O)c1cc(OC(=O)c2cc3c(F)cc(N4CCC4)cc3o2)cc2ccccc12` [Example 98, 4-Sulfamoylnaphthalen-2-yl 6-(azetidin-1-yl)-4-fluoro-1-benzofuran-2-carboxylate], the IC50 was greater than 20 µM in experiment [1] and greater than 2e-05 M in experiment [2] (MVLN, 24 h).
For `COc1ccc(C2=CCN(C)CC2)cc1S(=O)(=O)NC(=O)c1cc2c(F)cc(N3CCC3)cc2o1` [Example 203, 6-(Azetidin-1-yl)-4-fluoro-N-[2-methoxy-5-(1-methyl-1,2,3,6-tetrahydropyridin-4-yl)benzene-1-sulfonyl]-1-benzofuran-2-carboxamide] the same measures were 0.156 µM and 3.78e-06 M.
As for `O=C(NS(=O)(=O)c1cccc2c1S(=O)(=O)CCC2)c1cc2c(F)cc(N3CCC3)cc2o1` [Example 141, 6-(Azetidin-1-yl)-N-(1,1-dioxo-1,2,3,4-tetrahydro-1-benzothiopyran-8-sulfonyl)-4-fluoro-1-benzofuran-2-carboxamide], the IC50 in experiment [1] is 0.139 µM; in experiment [2] (MVLN, 24 h) it was 5.12e-07 M.
For `CCn1nc(S(=O)(=O)NC(=O)c2cc3c(F)cc(N4CCC4)cc3o2)c2cccnc21` [Example 143, 6-(Azetidin-1-yl)-N-(1-ethyl-1H-pyrazolo[3,4-b]pyridine-3-sulfonyl)-4-fluoro-1-benzofuran-2-carboxamide] the same measures were 0.226 µM and 4.61e-06 M.
For `Cc1ccc(F)c(S(=O)(=O)NC(=O)c2cc3c(F)cc(N4CCC4)cc3o2)c1` [Example 43, 6-(Azetidin-1-yl)-4-fluoro-N-(2-fluoro-5-methylbenzene-1-sulfonyl)-1-benzofuran-2-carboxamide] the same measures were 0.218 µM and 9.91e-07 M.
For `COc1cc(C)ccc1S(=O)(=O)NC(=O)c1cc2c(F)cc(N3CC(F)C3)cc2o1` [Example 158, 4-Fluoro-6-(3-fluoroazetidin-1-yl)-N-(2-methoxy-4-methylbenzene-1-sulfonyl)-1-benzofuran-2-carboxamide] the same measures were 0.0257 µM and 1.05e-07 M.
For the molecule `COc1cccnc1S(=O)(=O)NC(=O)c1cc2c(F)cc(N3CCC3)cc2o1` [Example 67, 6-(Azetidin-1-yl)-4-fluoro-N-(3-methoxypyridine-2-sulfonyl)-1-benzofuran-2-carboxamide], the IC50 in experiment [1] came out at 0.345 µM; in experiment [2] (MVLN, 24 h), 1.1e-05 M.
For `COc1ccc(-c2cccnc2)cc1S(=O)(=O)NC(=O)c1cc2c(F)cc(N3CCC3)cc2o1` [Example 200, 6-(Azetidin-1-yl)-4-fluoro-N-[2-methoxy-5-(pyridin-3-yl)benzene-1-sulfonyl]-1-benzofuran-2-carboxamide] the same measures were 0.0341 µM and 5.5e-07 M.
Take `O=C(NS(=O)(=O)c1cccc2c1CCCC2)c1cc2c(F)cc(N3CC(F)C3)cc2o1` [Example 108, 4-Fluoro-6-(3-fluoroazetidin-1-yl)-N-(5,6,7,8-tetrahydronaphthalene-1-sulfonyl)-1-benzofuran-2-carboxamide]: the IC50 in experiment [1] is 0.0686 µM; in experiment [2] (MVLN, 24 h), 1.29e-07 M.
For `CCOc1ccc(F)cc1S(=O)(=O)NC(=O)c1cc2c(F)cc(N3CCC3)cc2o1` [Example 210, 6-(Azetidin-1-yl)-N-(2-ethoxy-5-fluoro-phenyl)sulfonyl-4-fluoro-benzofuran-2-carboxamide], in that order: 0.0526 µM and 1.13e-07 M.
For `CC(C)c1ccc(C(C)C)c(S(=O)(=O)NC(=O)c2cc3c(F)cc(N4CCC4)cc3o2)c1` [Example 30, 6-(Azetidin-1-yl)-N-[2,5-di(propan-2-yl)benzene-1-sulfonyl]-4-fluoro-1-benzofuran-2-carboxamide], the IC50 in experiment [1] is 0.0247 µM; in experiment [2] (MVLN, 24 h) it was 4.18e-07 M.
For `COc1cc(Br)ccc1S(=O)(=O)NC(=O)c1cc2c(F)cc(N3CCC3)cc2o1` [Example 174, 6-(Azetidin-1-yl)-N-(4-bromo-2-methoxybenzene-1-sulfonyl)-4-fluoro-1-benzofuran-2-carboxamide], in that order: 0.0265 µM and 1.65e-07 M.
In the case of `O=C(NS(=O)(=O)c1ncccc1Br)c1cc2c(F)cc(N3CCC3)cc2o1` [Example 69, 6-(Azetidin-1-yl)-N-(3-bromopyridine-2-sulfonyl)-4-fluoro-1-benzofuran-2-carboxamide], the IC50 in experiment [1] turned out to be 0.325 µM; in experiment [2] (MVLN, 24 h), 1.56e-05 M.
Regarding `COc1ccc(Cl)c(C)c1S(=O)(=O)NC(=O)c1cc2c(F)cc(N3CCC3)cc2o1` [Example 27, 6-(Azetidin-1-yl)-N-(3-chloro-6-methoxy-2-methylbenzene-1-sulfonyl)-4-fluoro-1-benzofuran-2-carboxamide], the IC50 in experiment [1] was found to be 0.0496 µM; in experiment [2] (MVLN, 24 h), 3.54e-07 M.
Take `Cc1nc(N)c(S(=O)(=O)NC(=O)c2cc3c(F)cc(N4CCC4)cc3o2)c(C)c1Cl` [Example 104, N-(2-amino-5-chloro-4,6-dimethylpyridine-3-sulfonyl)-6-(azetidin-1-yl)-4-fluoro-1-benzofuran-2-carboxamide]: the IC50 is 0.793 µM in experiment [1] and 1.05e-05 M in experiment [2] (MVLN, 24 h).
In the case of `O=C(NS(=O)(=O)c1cnc2c(Cl)cc(Cl)cn12)c1cc2c(F)cc(N3CCC3)cc2o1` [Example 168, 6-(Azetidin-1-yl)-N-(6,8-dichloroimidazo[1,2-a]pyridine-3-sulfonyl)-4-fluoro-1-benzofuran-2-carboxamide], the IC50 was 0.671 µM in experiment [1] and greater than 2e-05 M in experiment [2] (MVLN, 24 h).
As for `CCCc1ccc2nc(Cl)c(S(=O)(=O)NC(=O)c3cc4c(F)cc(N5CCC5)cc4o3)n2n1` [Example 147, 6-(Azetidin-1-yl)-N-(2-chloro-6-propylimidazo[1,2-b]pyridazine-3-sulfonyl)-4-fluoro-1-benzofuran-2-carboxamide], the IC50 in experiment [1] was determined as 0.0915 µM; in experiment [2] (MVLN, 24 h) it was 2.98e-06 M.
For `CCCc1cccc(C(F)(F)F)c1S(=O)(=O)NC(=O)c1cc2c(F)cc(N3CCC3)cc2o1` [Example 58, 6-(Azetidin-1-yl)-4-fluoro-N-[2-propyl-6-(trifluoromethyl)benzene-1-sulfonyl]-1-benzofuran-2-carboxamide] the same measures were 0.315 µM and 3.87e-06 M.
